Results reported in US12139499B2, “Heteroaryl compounds for treating Huntington's disease” (PTC THERAPEUTICS, INC., priority 2018, dated 2024).

system: Endogenous Huntingtin Protein; assay: Endogenous Huntingtin Protein Assay (ELISA-based MSD electrochemiluminescence); type: cell-based; conditions: Table 1
In short: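 Huntingtin was captured overnight at 4 °C on plates coated with 1 μg/mL MW1 (polyQ-expanded) or MAB2166 antibody and BSA-blocked. Detection used a rabbit monoclonal and then a SULFO-TAG goat anti-rabbit antibody (0.25 μg/mL, 1 h each, room temperature). Signal was read by electrochemiluminescence.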

Row | SMILES | IC50
1 | Cc1cc(-c2cc3sc(N(C)C4CC(C)(C)NC(C)(C)C4)nc3nn2)cc2cn(C)nc12 [Compound 118, 3-(2,7-dimethyl-2H-indazol-5-yl)-N-methyl-N-(2,2,6,6-tetramethylpiperidin-4-yl)[1,3]thiazolo[4,5-c]pyridazin-6-amine] | 100 to 500 nM
2 | CN(c1nc2nnc(-c3ccc(-c4cn[nH]c4)cc3O)cc2s1)C1CC(C)(C)NC(C)(C)C1 [Compound 119, 2-{6-[methyl(2,2,6,6-tetramethylpiperidin-4-yl)amino][1,3]thiazolo[4,5-c]pyridazin-3-yl}-5-(1H-pyrazol-4-yl)phenol] | ≤ 100 nM
3 | Cc1cn2nc(-c3cc(F)c4nc(N5CCNCC5)sc4c3)cc(C)c2n1 [Compound 120, 6-[4-fluoro-2-(piperazin-1-yl)-1,3-benzothiazol-6-yl]-2,8-dimethylimidazo[1,2-b]pyridazine] | ≤ 100 nM
4 | Cc1cn2nc(-c3cc(F)c4nc(N5CCCNCC5)sc4c3)cc(C)c2n1 [Compound 121, 6-[2-(1,4-diazepan-1-yl)-4-fluoro-1,3-benzothiazol-6-yl]-2,8-dimethylimidazo[1,2-b]pyridazine] | ≤ 100 nM
5 | Cc1cc(-c2ncc3nc(N(C)C4CC(C)(C)NC(C)(C)C4)sc3n2)cc2cn(C)nc12 [Compound 122, 5-(2,7-dimethyl-2H-indazol-5-yl)-N-methyl-N-(2,2,6,6-tetramethylpiperidin-4-yl)[1,3]thiazolo[5,4-d]pyrimidin-2-amine] | 100 to 500 nM
6 | CN(c1nc2cnc(-c3cc(C#N)c4nn(C)cc4c3)nc2s1)C1CC(C)(C)NC(C)(C)C1 [Compound 123, 2-methyl-5-{2-[methyl(2,2,6,6-tetramethylpiperidin-4-yl)amino][1,3]thiazolo[5,4-d]pyrimidin-5-yl}-2H-indazole-7-carbonitrile] | ≤ 100 nM
7 | CN(c1nc2cnc(-c3cc(F)c4nn(C)cc4c3)nc2s1)C1CC(C)(C)NC(C)(C)C1 [Compound 124, 5-(7-fluoro-2-methyl-2H-indazol-5-yl)-N-methyl-N-(2,2,6,6-tetramethylpiperidin-4-yl)[1,3]thiazolo[5,4-d]pyrimidin-2-amine] | ≤ 100 nM
8 | Cc1cn2nc(-c3cc(F)c4nc(N5CCNC6(CC6)C5)sc4c3)cc(C)c2n1 [Compound 125, 6-[2-(4,7-diazaspiro[2.5]oct-7-yl)-4-fluoro-1,3-benzothiazol-6-yl]-2,8-dimethylimidazo[1,2-b]pyridazine] | 100 to 500 nM
9 | Cn1cc2cc(-c3cc(F)c4nc(C5CCNCC5)sc4c3)cc(F)c2n1 [Compound 126, 4-fluoro-6-(7-fluoro-2-methyl-2H-indazol-5-yl)-2-(piperidin-4-yl)-1,3-benzothiazole] | ≤ 100 nM
10 | Cc1cn2nc(-c3cc(F)c4nc(N(C)C5CC(C)(C)NC(C)(C)C5)sc4c3)cc(C)c2n1 [Compound 127, 6-(2,8-dimethylimidazo[1,2-b]pyridazin-6-yl)-4-fluoro-N-methyl-N-(2,2,6,6-tetramethylpiperidin-4-yl)-1,3-benzothiazol-2-amine] | ≤ 100 nM
11 | CN(c1nc2ccc(-c3cc(F)c4nn(C)cc4c3)nc2s1)C1CC(C)(C)NC(C)(C)C1 [Compound 128, 5-(7-fluoro-2-methyl-2H-indazol-5-yl)-N-methyl-N-(2,2,6,6-tetramethylpiperidin-4-yl)[1,3]thiazolo[5,4-b]pyridin-2-amine] | 100 to 500 nM
12 | Cc1cn2cc(-c3ccc4nc(N(C)C5CC(C)(C)NC(C)(C)C5)sc4n3)ccc2n1 [Compound 129, N-methyl-5-(2-methylimidazo[1,2-a]pyridin-6-yl)-N-(2,2,6,6-tetramethylpiperidin-4-yl)[1,3]thiazolo[5,4-b]pyridin-2-amine] | 500 to 1000 nM
13 | CN(c1nc2ncc(-c3ccc(-c4cn[nH]c4)cc3O)nc2s1)C1CC(C)(C)NC(C)(C)C1 [Compound 130, 2-{2-[methyl(2,2,6,6-tetramethylpiperidin-4-yl)amino][1,3]thiazolo[4,5-b]pyrazin-6-yl}-5-(1H-pyrazol-4-yl)phenol] | ≤ 100 nM
14 | Cc1cc(-c2cnc3nc(N(C)C4CC(C)(C)NC(C)(C)C4)sc3n2)cc2cn(C)nc12 [Compound 131, 6-(2,7-dimethyl-2H-indazol-5-yl)-N-methyl-N-(2,2,6,6-tetramethylpiperidin-4-yl)[1,3]thiazolo[4,5-b]pyrazin-2-amine] | ≤ 100 nM
15 | Cc1cn2nc(-c3cc(F)c4nc(N5CC(C)NC(C)C5)sc4c3)cc(C)c2n1 (stereo not drawn) [Compound 132, 6-[2-(3,5-dimethylpiperazin-1-yl)-4-fluoro-1,3-benzothiazol-6-yl]-2,8-dimethylimidazo[1,2-b]pyridazine] | ≤ 100 nM
16 | Cc1cn2nc(-c3cc(F)c4nc(OC5CC(C)(C)NC(C)(C)C5)sc4c3)cc(C)c2n1 [Compound 133, 6-{4-fluoro-2-[(2,2,6,6-tetramethylpiperidin-4-yl)oxy]-1,3-benzothiazol-6-yl}-2,8-dimethylimidazo[1,2-b]pyridazine] | ≤ 100 nM
17 | Cc1cc(-c2cc(O)c3nc(C4CCNCC4)sc3c2)cc2cn(C)nc12 [Compound 134, 6-(2,7-dimethyl-2H-indazol-5-yl)-2-(piperidin-4-yl)-1,3-benzothiazol-4-ol] | 100 to 500 nM

Row | SMILES | IC50
18 | Cc1cn2nc(-c3cc(F)c4nc(OC5CC(C)NC(C)C5)sc4c3)cc(C)c2n1 (stereo not drawn) [Compound 135, 6-{2-[(2,6-dimethylpiperidin-4-yl)oxy]-4-fluoro-1,3-benzothiazol-6-yl}-2,8-dimethylimidazo[1,2-b]pyridazine] | ≤ 100 nM
19 | Cc1nc2ccc(-c3cc4sc(N(C)C5CC(C)(C)NC(C)(C)C5)nc4cn3)cn2n1 [Compound 136, N-methyl-6-(2-methyl[1,2,4]triazolo[1,5-a]pyridin-6-yl)-N-(2,2,6,6-tetramethylpiperidin-4-yl)[1,3]thiazolo[4,5-c]pyridin-2-amine] | 100 to 500 nM
20 | CN(c1nc2cnc(-c3ccc(-c4cn[nH]c4)cc3O)cc2s1)C1CC(C)(C)NC(C)(C)C1 [Compound 137, 2-{2-[methyl(2,2,6,6-tetramethylpiperidin-4-yl)amino][1,3]thiazolo[4,5-c]pyridin-6-yl}-5-(1H-pyrazol-4-yl)phenol] | 3000 to 9000 nM
21 | Cc1cn2cc(-c3ccc4nc(N(C)C5CC(C)(C)NC(C)(C)C5)sc4c3)cc(C#N)c2n1 [Compound 138, 2-methyl-6-{2-[methyl(2,2,6,6-tetramethylpiperidin-4-yl)amino]-1,3-benzothiazol-6-yl}imidazo[1,2-a]pyridine-8-carbonitrile] | ≤ 100 nM
22 | Cc1cn2nc(-c3ccc4nc(C5CCNCC5)sc4c3)cc(C)c2n1 [Compound 139, 2,8-dimethyl-6-[2-(piperidin-4-yl)-1,3-benzothiazol-6-yl]imidazo[1,2-b]pyridazine] | ≤ 100 nM
23 | CN(c1nc2ncc(-c3cc(C#N)c4nn(C)cc4c3)nc2s1)C1CC(C)(C)NC(C)(C)C1 [Compound 140, 2-methyl-5-{2-[methyl(2,2,6,6-tetramethylpiperidin-4-yl)amino][1,3]thiazolo[4,5-b]pyrazin-6-yl)-2H-indazole-7-carbonitrile] | ≤ 100 nM
24 | Cc1cn2nc(-c3cnc4nc(N(C)C5CC(C)(C)NC(C)(C)C5)sc4n3)ccc2n1 [Compound 141, N-methyl-6-(2-methylimidazo[1,2-b]pyridazin-6-yl)-N-(2,2,6,6-tetramethylpiperidin-4-yl)[1,3]thiazolo[4,5-b]pyrazin-2-amine] | ≤ 100 nM
25 | CN(c1nc2cnc(-c3ccc(-c4cn[nH]c4)cc3O)nc2s1)C1CC(C)(C)NC(C)(C)C1 [Compound 142, 2-{2-[methyl(2,2,6,6-tetramethylpiperidin-4-yl)amino][1,3]thiazolo[5,4-d]pyrimidin-5-yl}-5-(1H-pyrazol-4-yl)phenol] | 100 to 500 nM
26 | Cc1cn2nc(-c3cc(F)c4nc(N5CCC(O)CC5)sc4c3)cc(C)c2n1 [Compound 143, 1-[6-(2,8-dimethylimidazo[1,2-b]pyridazin-6-yl)-4-fluoro-1,3-benzothiazol-2-yl]piperidin-4-ol] | 100 to 500 nM
27 | Cc1cn2nc(-c3cc(F)c4nc(C5CCN[C@H](C)C5)sc4c3)ccc2n1 (stereo partly drawn) [Compound 144, 6-{4-fluoro-2-[(2R)-2-methylpiperidin-4-yl]-1,3-benzothiazol-6-yl}-2-methylimidazo[1,2-b]pyridazine] | ≤ 100 nM
28 | COc1cc(-c2cc(F)c3nc(C4=CCNCC4)sc3c2)nn2cc(C)nc12 [Compound 145, 6-[4-fluoro-2-(1,2,3,6-tetrahydropyridin-4-yl)-1,3-benzothiazol-6-yl]-8-methoxy-2-methylimidazo[1,2-b]pyridazine] | ≤ 100 nM
29 | Cc1cc(-c2ccc3nc(N(C)C4CCNC(C)(C)C4)sc3c2)cc2cn(C)nc12 (stereo not drawn) [Compound 146, 6-(2,7-dimethyl-2H-indazol-5-yl)-N-(2,2-dimethylpiperidin-4-yl)-N-methyl-1,3-benzothiazol-2-amine] | 100 to 500 nM
30 | Cc1cn2cc(-c3cc4sc(N(C)C5CC(C)(C)NC(C)(C)C5)nc4cn3)cc(F)c2n1 [Compound 147, 6-(8-fluoro-2-methylimidazo[1,2-a]pyridin-6-yl)-N-methyl-N-(2,2,6,6-tetramethylpiperidin-4-yl)[1,3]thiazolo[4,5-c]pyridin-2-amine] | ≤ 100 nM
31 | CN(c1nc2ccc(-c3cc(C#N)c4nn(C)cc4c3)nc2s1)C1CC(C)(C)NC(C)(C)C1 [Compound 148, 2-methyl-5-{2-[methyl(2,2,6,6-tetramethylpiperidin-4-yl)amino][1,3]thiazolo[5,4-b]pyridin-5-yl}-2H-indazole-7-carbonitrile] | ≤ 100 nM
32 | CN(c1nc2ccc(-c3ccc(-c4cn[nH]c4)cc3O)nc2s1)C1CC(C)(C)NC(C)(C)C1 [Compound 149, 2-{2-[methyl(2,2,6,6-tetramethylpiperidin-4-yl)amino][1,3]thiazolo[5,4-b]pyridin-5-yl}-5-(1H-pyrazol-4-yl)phenol] | 100 to 500 nM
33 | CN(c1nc2ncc(-c3cc(F)c4nn(C)cc4c3)nc2s1)C1CC(C)(C)NC(C)(C)C1 [Compound 150, 6-(7-fluoro-2-methyl-2H-indazol-5-yl)-N-methyl-N-(2,2,6,6-tetramethylpiperidin-4-yl)[1,3]thiazolo[4,5-b]pyrazin-2-amine] | ≤ 100 nM
